Laboratory results: patent US6620828B2, “Thiazole compounds and pharmaceutical compositions for inhibiting protein kinases and methods for their use” (Agouron Pharmaceuticals, Inc., priority 1999, dated 2003)

System: human umbilical vein endothelial cells (HUVEC)
Assay: HUVEC proliferation assay
Format: cell-based
Conditions: Homo sapiens, HUVEC, crude combinatorial urea library; for inhibition at 0.01 µM: 10 nM, read-out: Inhibition of HUVEC Proliferation % inhibition @ 10 nM; for inhibition at 0.05 µM: 50 nM, read-out: Inhibition of HUVEC Proliferation % inhibition @ 50 nM
Procedure: HUVEC Proliferation Assay
This assay determines the ability of a test compound to inhibit the growth factor-stimulated proliferation of human umbilical vein endothelial cells (“HUVEC”). HUVEC cells (passage 3-4, Clonetics, Corp.) were thawed into EGM2 culture medium (Clonetics Corp) in T75 flasks. Fresh EGM2 medium was added to the flasks 24 hours later. Four or five days later, cells were exposed to another culture medium (F12K medium supplemented with 10% fetal bovine serum (FBS), 60 μg/ml endothelial cell growth supplement (ECGS), and 0.1 mg/ml heparin). Exponentially-growing HUVEC cells were used in experiments thereafter. Ten to twelve thousand HUVEC cells were plated in 96-well dishes in 100 μl of rich, culture medium (described above). The cells were allowed to attach for 24 hours in this medium. The medium was then removed by aspiration and 105 μl of starvation media (F12K+1% FBS) was added to each well. After 24 hours, 15 μl of test agent dissolved in 1% DMSO in starvation medium or this vehicle alone was added into each treatment well; the final DMSO concentration was 0.1%. One hour later, 30 μl of VEGF (30 ng/ml) in starvation media was added to all wells except those containing untreated controls; the final VEGF concentration was 6 ng/ml. Cellular proliferation was quantified 72 hours later by MTT dye reduction, at which time cells were exposed for 4 hours MTT (Promega Corp.). Dye reduction was stopped by addition of a stop solution (Promega Corp.) and absorbance at 595 λ was determined on a 96-well spectrophotometer plate reader.
IC50 values were calculated by curve-fitting the response of A^595 to various concentrations of the test agent; typically, seven concentrations separated by 0.5 log were employed, with triplicate wells at each concentration. For screening compound library plates, one or two concentrations (one well per concentration) were employed, and the % inhibition was calculated by the following formula:
% inhibition=(control−test) divided by (control−starvation) […]
control=A^595 when VEGF is present without test agent test=A^595 when VEGF is present with test agent starvation=A^595 when VEGF and test agent are both absent.

COc1cccc(C(=O)Nc2cccc(-c3csc(-c4sc(NC(=O)NCC5CCC=CO5)nc4N)n3)c2)c1 (stereo not shown)
inhibition at 0.01 µM: -5% | inhibition at 0.05 µM: 33%

CCN(CC)CCNC(=O)Nc1nc(N)c(-c2nc(-c3cccc(NC(=O)c4cccc(OC)c4)c3)cs2)s1
inhibition at 0.01 µM: -38% | inhibition at 0.05 µM: 39%

CCCCN(CCCC)CCCNC(=O)Nc1nc(N)c(-c2nc(-c3cccc(NC(=O)c4cccc(OC)c4)c3)cs2)s1
inhibition at 0.01 µM: -5% | inhibition at 0.05 µM: 62%

CCN(CC)CCCNC(=O)Nc1nc(N)c(-c2nc(-c3cccc(NC(=O)c4cccc(OC)c4)c3)cs2)s1
inhibition at 0.01 µM: -7% | inhibition at 0.05 µM: 45%

COc1cccc(C(=O)Nc2cccc(-c3csc(-c4sc(NC(=O)NCC(N)=O)nc4N)n3)c2)c1
inhibition at 0.01 µM: 12% | inhibition at 0.05 µM: 25%

COc1cccc(C(=O)Nc2cccc(-c3csc(-c4sc(NC(=O)NCC(C)C)nc4N)n3)c2)c1
inhibition at 0.01 µM: -1% | inhibition at 0.05 µM: -23%

COc1cccc(C(=O)Nc2cccc(-c3csc(-c4sc(NC(=O)NCCc5cccnc5)nc4N)n3)c2)c1
inhibition at 0.01 µM: 35% | inhibition at 0.05 µM: 97%

COc1cccc(C(=O)Nc2cccc(-c3csc(-c4sc(NC(=O)NCCO)nc4N)n3)c2)c1
inhibition at 0.01 µM: 38%

COc1cccc(C(=O)Nc2cccc(-c3csc(-c4sc(NC(=O)N[C@@H](CC(N)=O)C(N)=O)nc4N)n3)c2)c1
inhibition at 0.01 µM: 19% | inhibition at 0.05 µM: 23%

CNC(=O)CNC(=O)Nc1nc(N)c(-c2nc(-c3cccc(NC(=O)c4cccc(OC)c4)c3)cs2)s1
inhibition at 0.01 µM: 42% | inhibition at 0.05 µM: 23%

COc1cccc(C(=O)Nc2cccc(-c3csc(-c4sc(NC(=O)NCCc5cncn5C)nc4N)n3)c2)c1
inhibition at 0.01 µM: -15% | inhibition at 0.05 µM: 15%

CCN1CCCC1CNC(=O)Nc1nc(N)c(-c2nc(-c3cccc(NC(=O)c4cccc(OC)c4)c3)cs2)s1 (stereo not shown)
inhibition at 0.01 µM: -29% | inhibition at 0.05 µM: 108%

COc1cccc(C(=O)Nc2cccc(-c3csc(-c4sc(NC(=O)NC(C)CN(C)C)nc4N)n3)c2)c1 (stereo not shown)
inhibition at 0.01 µM: 12% | inhibition at 0.05 µM: 28%

COc1cccc(C(=O)Nc2cccc(-c3csc(-c4sc(NC(=O)NCCCN5CCCC5)nc4N)n3)c2)c1
inhibition at 0.01 µM: 1% | inhibition at 0.05 µM: 101%

COc1cccc(C(=O)Nc2cccc(-c3csc(-c4sc(NC(=O)NCCN(C(C)C)C(C)C)nc4N)n3)c2)c1
inhibition at 0.01 µM: 2% | inhibition at 0.05 µM: 22%

COc1cccc(C(=O)Nc2cccc(-c3csc(-c4sc(NC(=O)NCCCN5CCN(C)CC5)nc4N)n3)c2)c1
inhibition at 0.01 µM: -9% | inhibition at 0.05 µM: 67%

COc1cccc(C(=O)Nc2cccc(-c3csc(-c4sc(NC(=O)NCCN5CCNC5=O)nc4N)n3)c2)c1
inhibition at 0.01 µM: 0% | inhibition at 0.05 µM: 35%

COc1cccc(C(=O)Nc2cccc(-c3csc(-c4sc(NC(=O)NCCC(N)=O)nc4N)n3)c2)c1
inhibition at 0.01 µM: 30% | inhibition at 0.05 µM: 1%

CCN(CC)CCCC(C)NC(=O)Nc1nc(N)c(-c2nc(-c3cccc(NC(=O)c4cccc(OC)c4)c3)cs2)s1 (stereo not shown)
inhibition at 0.01 µM: 7% | inhibition at 0.05 µM: 68%

COc1cccc(C(=O)Nc2cccc(-c3csc(-c4sc(NC(=O)NCCCCN(C)C)nc4N)n3)c2)c1
inhibition at 0.01 µM: -2% | inhibition at 0.05 µM: 71%

COc1cccc(C(=O)Nc2cccc(-c3csc(-c4sc(NC(=O)NCCCCCCN(C)C)nc4N)n3)c2)c1
inhibition at 0.01 µM: 32% | inhibition at 0.05 µM: 24%

COc1cccc(C(=O)Nc2cccc(-c3csc(-c4sc(NC(=O)NCC(C)N(C)C)nc4N)n3)c2)c1 (stereo not shown)
inhibition at 0.01 µM: -22% | inhibition at 0.05 µM: -3%

COc1cccc(C(=O)Nc2cccc(-c3csc(-c4sc(NC(=O)NCCCN5CCCCCC5)nc4N)n3)c2)c1
inhibition at 0.01 µM: 2% | inhibition at 0.05 µM: 117%

COc1cccc(C(=O)Nc2cccc(-c3csc(-c4sc(NC(=O)NCCCN5CCCCC5)nc4N)n3)c2)c1
inhibition at 0.01 µM: 15% | inhibition at 0.05 µM: 49%

COc1cccc(C(=O)Nc2cccc(-c3csc(-c4sc(NC(=O)NC5CCS(=O)(=O)C5)nc4N)n3)c2)c1 (stereo not shown)
inhibition at 0.01 µM: 9% | inhibition at 0.05 µM: 86%
